# According to PMC7806782, “Tethering-induced destabilization and ATP-binding for tandem RRM domains of ALS-causing TDP-43 and hnRNPA1” (Scientific Reports, 2021):
# How the values were obtained:
# Experiment in all cases: 1H-15N HSQC NMR titration, one-site fit of chemical shift differences
# Format in all cases: binding
# [1] = biological target: T1, tethered hnRNPA1 RRM1–RRM2 (5–184) (Homo sapiens, UniProt P09651)
# T1 construct: ATP site in RRM2
# [2] = biological target: T2, isolated TDP-43 RRM2 (191–269) (Homo sapiens, UniProt Q13148)
# T2 construct: gene TARDBP
# Text: 1H-15N HSQC NMR titration, one-site fit of chemical shift differences on isolated TDP-43 RRM2 (191–269) | isolated RRM2 is also able to bind ATP to induce large shifts
# [3] = biological target: T3, isolated hnRNPA1 RRM2 (94–184) (Homo sapiens, UniProt P09651)
# T3 construct: printed as 90-residue
# T3 sequence (P09651 94-184): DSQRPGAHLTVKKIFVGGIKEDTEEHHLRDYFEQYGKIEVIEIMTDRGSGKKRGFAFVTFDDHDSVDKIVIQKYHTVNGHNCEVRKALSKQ
# T2 sequence (Q13148 191-269): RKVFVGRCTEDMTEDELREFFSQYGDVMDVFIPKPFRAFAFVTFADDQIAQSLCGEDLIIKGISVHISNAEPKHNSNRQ
# T1 sequence (P09651 5-184): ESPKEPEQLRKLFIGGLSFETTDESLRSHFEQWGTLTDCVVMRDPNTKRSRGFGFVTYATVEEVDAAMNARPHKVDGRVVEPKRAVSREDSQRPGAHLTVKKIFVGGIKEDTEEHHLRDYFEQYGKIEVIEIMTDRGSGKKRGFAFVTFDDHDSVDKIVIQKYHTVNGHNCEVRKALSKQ
structure (smiles),measurement,setting,value
Nc1ncnc2c1ncn2[C@@H]1O[C@H](COP(=O)(O)OP(=O)(O)OP(=O)(O)O)[C@@H](O)[C@H]1O [ATP],Kd,[1],4.9 mM
same,Kd,[2],16.7 ± 0.9 mM
same,Kd,[3],7.7 mM
